Here are results for two compounds from article PMC6389909, “Isothermal Analysis of ThermoFluor Data can readily provide Quantitative Binding Affinities” (Scientific Reports, 2019).

Where only a bound is given, the exact number is not on record here.

The target of experiment [1] is T1, h-CA I (Homo sapiens, UniProt P00915). Nature of the experiment: Esterase activity assay (4-nitrophenyl acetate), h-CA I. It is filed as biochemical. On the set-up: purchased Sigma C4396. The settings on record: h-CA I 2 µM; 57 °C; noncompetitive inhibition fit; read-out: Ki (µM), from enzyme assay.
Method: Carbonic anhydrase activity (h-CA I and b-CA II) was measured using a spectrophotometer (Molecular Devices, SpectraMax® i3x) as described elsewhere[73]. h-CA I was used at a final concentration of 2 µM and b-CA II was used at a final concentration of 0.5 µM in the buffer: 100 mM NaCl, 20 mM TRIS, pH 6.1, 1% DMSO. […] All reactions of h-CA I took place at 57 °C and reactions of b-CA II took place at 60 °C. […] Enzyme initial velocity was plotted with different substrate concentration using Prism6. Data were collected for each of the four inhibitors, and the change in initial velocities were analyzed with the “Enzyme-noncompetitive inhibition” equation in Prism6.
Experiment [2] addresses T1, h-CA I. Nature of the experiment: SYPRO Orange DSF, isothermal analysis, carbonic anhydrase h-CA I.
Method: All proteins (MBP, h-CA I and b-CA II) were used at a final concentration of 2 µM for this assay. SYPRO Orange (Invitrogen S6651) was used at a final concentration of 20X for MBP, and at 10X for the carbonic anhydrases. […] Carbonic anhydrase experiments were carried out in 100 mM NaCl, 20 mM TRIS, 1% DMSO, pH 6.1.
All DSF experiments were carried out with Eppendorf Realplex2 Mastercycler. Each sample was divided to three 50 µL replicates. Sample solutions were dispensed into 96-well optical reaction plate (Thermo Fisher Scientific 4306737) and the plate was sealed with optical PCR plate sheet (Thermo Fisher Scientific AB-1170). Fluorescence intensity was measured via the JOE emission filter (550 nm) and “PTS clear plate” was set as the background for the calibration. […] Melting curves were directly exported from the instrument, and then were analyzed with Prism 6 (GraphPad Software Inc.).
DSF data were analyzed in three steps. First, raw fluorescence data as a function of temperature were fit to a modified form of the thermodynamic equation, as follows:22 ΔG=ΔH(1−T/Tm)−ΔCp(Tm−T+Tln[T/Tm]) 23 KU=e^−ΔG/RT 24 Y(T)=[1/1+KU(mFT+bF)]+[KU/1+KU(mUT+bU)]
Here Equation 24 relates the observed fluorescence signal, Y, as a function of temperature (T). The two terms in this equation correspond to contributions from folded and unfolded protein, respectively. […]
In experiment [3] the target is MBP. The settings on record: read-out: Kd reported in previous studies; cited from earlier work.

T1 sequence (P00915 whole entry): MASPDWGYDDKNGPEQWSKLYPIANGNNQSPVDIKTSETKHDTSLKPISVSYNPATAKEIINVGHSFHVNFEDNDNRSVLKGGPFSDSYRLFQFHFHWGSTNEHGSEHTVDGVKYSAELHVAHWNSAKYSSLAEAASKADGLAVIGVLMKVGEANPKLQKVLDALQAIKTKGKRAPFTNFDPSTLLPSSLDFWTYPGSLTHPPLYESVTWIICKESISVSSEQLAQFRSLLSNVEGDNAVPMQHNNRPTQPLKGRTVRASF

For `NS(=O)(=O)C(F)(F)F` [TFMSA, trifluoromethanesulfonamide], the inhibition constant (Ki) (commonly the dissociation constant of the complex between target and ligand, obtained from inhibition or displacement) in experiment [1] was below 1 µM. Moreover, in experiment [2], the EC50 (usually the concentration at which the effect is half-maximal) was 1400 nM. Moreover, in experiment [2] (Kd (µM), from DSF, h-CA I, 57 °C, 2 µM protein, no denaturant), the Kd – broadly, the equilibrium constant for the complex coming apart – was below 0.5 µM.

Consider `OC[C@H]1O[C@H](O[C@H]2[C@H](O)[C@@H](O)C(O)O[C@@H]2CO)[C@H](O)[C@@H](O)[C@@H]1O` (mixture of isomers) [maltose], for which the Kd in experiment [3] was 500 to 2000 nM.
